In patent publication US20240067654A1 (Kinoxis Therapeutics Pyt Ltd, priority 2020, published 2024):

Key:
OTR [1] = target: T1, OTR (Homo sapiens, UniProt P30559); experiment: Modulation of oxytocin-evoked intracellular IP1 and Ca2+ increase: OT dose-response in presence and absence of 10 μM compound; conditions: for change in OT potency seen in OT dose-response curves (figure legend): 10 μM of compound; for Relative Potency: OT potency with 10 μM compound relative to OT only
T1 sequence (P30559 1-389): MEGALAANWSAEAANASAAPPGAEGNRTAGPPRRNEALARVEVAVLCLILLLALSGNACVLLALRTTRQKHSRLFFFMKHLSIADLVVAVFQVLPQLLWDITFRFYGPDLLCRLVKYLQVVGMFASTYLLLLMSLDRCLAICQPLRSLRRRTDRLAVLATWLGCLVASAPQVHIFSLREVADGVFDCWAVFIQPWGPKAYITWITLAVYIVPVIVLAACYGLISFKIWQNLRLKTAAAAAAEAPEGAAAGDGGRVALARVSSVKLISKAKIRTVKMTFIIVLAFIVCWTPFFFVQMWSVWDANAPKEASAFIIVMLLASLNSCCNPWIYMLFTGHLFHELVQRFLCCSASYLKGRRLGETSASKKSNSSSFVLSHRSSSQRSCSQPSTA
Procedure: These assays were performed using commercial kits (IP1 HTRF from Cisbio and Fluo-4AM from Invitrogen), according to the manufacturer's protocol.

OTR [2] = target: T1, OTR; experiment: Tritiated OT (3H-OT) displacement; format: binding; set-up: expressed in transfected cells; host or cells: HEK cells, Flp-In TREX system (Invitrogen); conditions: Kd concentration of 3H-OT; compound at a concentration up to 10 μM
[3] = in vivo; cited from earlier work
human V1aR = human V1aR (Homo sapiens, UniProt P37288); conditions: cited from earlier work
Sequence of human V1aR (P37288 whole entry): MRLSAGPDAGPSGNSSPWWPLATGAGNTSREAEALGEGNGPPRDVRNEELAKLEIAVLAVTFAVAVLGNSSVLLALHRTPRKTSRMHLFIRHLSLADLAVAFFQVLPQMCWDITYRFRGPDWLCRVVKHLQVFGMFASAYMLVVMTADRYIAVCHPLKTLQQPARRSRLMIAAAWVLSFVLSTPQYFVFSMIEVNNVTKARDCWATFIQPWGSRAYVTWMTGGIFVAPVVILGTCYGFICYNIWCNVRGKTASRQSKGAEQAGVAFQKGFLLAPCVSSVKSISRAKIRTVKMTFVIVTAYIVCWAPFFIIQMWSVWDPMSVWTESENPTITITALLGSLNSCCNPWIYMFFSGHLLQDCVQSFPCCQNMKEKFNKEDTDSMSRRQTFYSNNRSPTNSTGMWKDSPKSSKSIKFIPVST

[4] = rat, in vivo; cited from earlier work
rat V1aR = rat V1aR (Rattus norvegicus, UniProt P30560); conditions: cited from earlier work
Sequence of rat V1aR (P30560 whole entry): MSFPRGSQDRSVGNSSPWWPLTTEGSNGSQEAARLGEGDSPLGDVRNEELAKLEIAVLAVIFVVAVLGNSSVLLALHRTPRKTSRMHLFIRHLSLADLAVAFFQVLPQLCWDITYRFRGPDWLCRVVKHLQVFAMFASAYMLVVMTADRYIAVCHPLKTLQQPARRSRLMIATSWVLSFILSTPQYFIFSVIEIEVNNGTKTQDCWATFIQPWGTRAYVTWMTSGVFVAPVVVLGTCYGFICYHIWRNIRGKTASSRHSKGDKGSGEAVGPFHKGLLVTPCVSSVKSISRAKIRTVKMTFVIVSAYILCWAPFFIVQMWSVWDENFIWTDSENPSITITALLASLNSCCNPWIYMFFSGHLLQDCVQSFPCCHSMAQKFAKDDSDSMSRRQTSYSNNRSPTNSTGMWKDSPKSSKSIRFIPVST

OTR [5] = target: T1, OTR; experiment: Calcium (Ca2+) influx induced by OT in the presence of various concentrations of compound 3 (HEK assay); format: cell-based; set-up: expressed in transfected cells; host or cells: HEK cells, Flp-In TREX system (Invitrogen)

Cc1ccc(C(=O)n2c3ccccc3c3c2cnn3C)cc1 [Compound 4]
melting point: 167 to 169 °C | change in OT potency seen in OT dose-response curves (figure legend) (OTR [1]): improvement in OT potency | Relative Potency (OTR [1]; Table 3 group): 2.9

Cn1ncc2c1c1ccccc1n2C(=O)C1CCCC1 [Compound 12]
change in OT potency seen in OT dose-response curves (figure legend) (OTR [1]): improvement in OT potency | Relative Potency (OTR [1]; Table 4 group): 2.3

Cn1ncc2c3ccccc3n(C(=O)c3cccc(F)c3)c21 [Compound 32]
Relative Potency (OTR [1]; Table 5 group): 3.4

Cn1ncc2c3ccccc3n(C(=O)c3ccccc3)c21 [Compound 31]
Relative Potency (OTR [1]; Table 5 group): 5.0

COc1ccc(C(=O)n2c3ccccc3c3c2cnn3C)cc1 [Compound 7]
melting point: 136 to 138 °C | change in OT potency seen in OT dose-response curves (figure legend) (OTR [1]): improvement in OT potency | Relative Potency (OTR [1]; Table 7 group): 2.1

Cn1ncc2c1c1ccccc1n2C(=O)c1ccccc1 [Compound 1]
melting point: 152.6 to 153.2 °C | displacement of the binding of 3H-OT (OTR [2]): None of compounds 1, 2 or 3 displaced ^3H-OT | change in OT potency seen in OT dose-response curves (figure legend) (OTR [1]): improvement in OT potency | Relative Potency (OTR [1]; Table 2 group): 10.4

Cn1ncc2c1c1ccccc1n2C(=O)c1cccc2ncccc12 [Compound 29]
change in OT potency seen in OT dose-response curves (figure legend) (OTR [1]): improvement in OT potency | Relative Potency (OTR [1]; Table 8 group, n = 2): 2.8

Cn1ncc2c3ccccc3n(C(=O)C3CCCCC3)c21 [Compound 33]
Relative Potency (OTR [1]; Table 5 group): 3.7

Cn1ccc2c1c1ccccc1n2C(=O)C1CCCCC1 [Compound 35]
change in OT potency seen in OT dose-response curves (figure legend) (OTR [1]): improvement in OT potency | Relative Potency (OTR [1]; Table 9 group): 3.7

Cn1ncc2c1c1ccccc1n2C(=O)c1ccc(Cl)c(Cl)c1 [Compound 6]
melting point: 142 to 143 °C | change in OT potency seen in OT dose-response curves (figure legend) (OTR [1]): improvement in OT potency | Relative Potency (OTR [1]; Table 3 group): 2.9

Cn1ncc2c1c1ccccc1n2S(=O)(=O)C1CCCCC1 [Compound 43]
change in OT potency seen in OT dose-response curves (figure legend) (OTR [1]): improvement in OT potency | Relative Potency (OTR [1]; Table 6 group): 2.6

Cn1ncc2c1c1ccccc1n2C(=O)C1CCOCC1 [Compound 16]
change in OT potency seen in OT dose-response curves (figure legend) (OTR [1]): improvement in OT potency | Relative Potency (OTR [1]; Table 7 group): 2.6

Cn1ncc2c1c1ccccc1n2C(=O)C12CC3CC(CC(C3)C1)C2 [Compound 23]
change in OT potency seen in OT dose-response curves (figure legend) (OTR [1]): improvement in OT potency | Relative Potency (OTR [1]; Table 4 group): 3.4

Cn1ncc2c1c1ccccc1n2C(=O)C1CCCCCC1 [Compound 13]
change in OT potency seen in OT dose-response curves (figure legend) (OTR [1]): improvement in OT potency | Relative Potency (OTR [1]; Table 4 group): 2.5

Cn1ncc2c1c1ccccc1n2C(=O)c1ccc(Cl)cc1 [Compound 5]
melting point: 145 to 147 °C | change in OT potency seen in OT dose-response curves (figure legend) (OTR [1]): improvement in OT potency | Relative Potency (OTR [1]; Table 3 group): 3.1

CC[C@H](C)[C@@H]1NC(=O)[C@H](Cc2ccc(O)cc2)NC(=O)[C@@H](N)CSSC[C@@H](C(=O)N2CCC[C@H]2C(=O)N[C@@H](CC(C)C)C(=O)NCC(N)=O)NC(=O)[C@H](CC(N)=O)NC(=O)[C@H](CCC(N)=O)NC1=O [OT, Oxytocin]
fraction of intranasal OT that enters the brain [3]: 0.002-0.005% | affinity of OT at V1aR (human V1aR): 120 nM | half-life in blood [4]: 3 to 8 min | affinity of OT at V1aR (rat V1aR): 78 nM

Cn1ncc2c1c1ccccc1n2C(=O)c1ccc(F)cc1 [Compound 10]
change in OT potency seen in OT dose-response curves (figure legend) (OTR [1]): improvement in OT potency | Relative Potency (OTR [1]; Table 7 group): 2.5

Cn1ncc2c1c1ccccc1n2C(=O)C1CCCCC1 [Compound 3]
melting point: 140.3 to 141.2 °C | displacement of the binding of 3H-OT (OTR [2]): None of compounds 1, 2 or 3 displaced ^3H-OT | Relative Potency (OTR [5]; OT + 0.01 μM compound 3, relative to 0 μM): 0.64 | Relative Potency (OTR [5]; OT + 0.03 μM compound 3, relative to 0 μM): 0.47 | Relative Potency (OTR [5]; OT + 0.3 μM compound 3, relative to 0 μM): 2.83 | Relative Potency (OTR [5]; OT + 1 μM compound 3, relative to 0 μM): 3.90 | Relative Potency (OTR [5]; OT + 10 μM compound 3, relative to 0 μM): 19.0 | change in OT potency seen in OT dose-response curves (figure legend) (OTR [1]): improvement in OT potency | Relative Potency (OTR [1]; Table 2 group): 5.5

CCCCC(=O)n1c2ccccc2c2c1cnn2C [Compound 14]
change in OT potency seen in OT dose-response curves (figure legend) (OTR [1]): improvement in OT potency | Relative Potency (OTR [1]; Table 7 group): 2.6

Cn1ncc2c1c1ccccc1n2C(=O)N1CCCCC1 [Compound 42]
change in OT potency seen in OT dose-response curves (figure legend) (OTR [1]): improvement in OT potency | Relative Potency (OTR [1]; Table 6 group): 2.3

Cn1ncc2c1c1ccccc1n2C(=O)c1cccc(F)c1 [Compound 2]
melting point: 91.1 to 92.8 °C | displacement of the binding of 3H-OT (OTR [2]): None of compounds 1, 2 or 3 displaced ^3H-OT | change in OT potency seen in OT dose-response curves (figure legend) (OTR [1]): improvement in OT potency | Relative Potency (OTR [1]; Table 2 group): 8.4
